Reference: patent publication US20200288713A1, “PESTICIDALLY ACTIVE PYRAZOLE DERIVATIVES” (SYNGENTA PARTICIPATIONS AG, priority 2017, published 2020)
Read-outs that look alike come from different tables or passages of the source.

Assays:
Format in all cases: in vivo
[1] = tested on: Spodoptera littoralis; assay: Spodoptera littoralis (Egyptian cotton leaf worm) feeding/contact activity; conditions: foliar, 72 h
Method: Spodoptera littoralis (Egyptian cotton leaf worm): Feeding/contact activity Cotton leaf discs were placed onto agar in 24-well microtiter plates and sprayed with aqueous test solutions prepared from 10′000 ppm DMSO stock solutions. After drying the leaf discs were infested with five L1 larvae. The samples were assessed for mortality 3 days after infestation.

[2] = tested on: Thrips tabaci; assay: Thrips tabaci (onion thrips) feeding/contact activity; conditions: foliar, 144 h
Method: Thrips tabaci (Onion Thrips): Feeding/Contact Activity
(§1) Sunflower leaf discs were placed on agar in 24-well microtiter plates and sprayed with aqueous test solutions prepared from 10′000 ppm DMSO stock solutions. After drying the leaf discs were infested with a thrips population of mixed ages. The samples were assessed for mortality 6 days after infestation.

[3] = tested on: Diabrotica balteata; assay: Diabrotica balteata (corn root worm) mortality test on maize sprouts; conditions: 96 h, application rate 200 ppm, L2 larvae on sprayed maize sprouts, assessed 4 days after infestation
Method: Diabrotica balteata (Corn Root Worm):
Maize sprouts placed onto an agar layer in 24-well microtiter plates were treated with aqueous test solutions prepared from 10′000 ppm DMSO stock solutions by spraying. After drying, the plates were infested with L2 larvae (6 to 10 per well). The samples were assessed for mortality 4 days after infestation.

[4] = tested on: Tetranychus urticae; assay: Tetranychus urticae (two-spotted spider mite) feeding/contact activity; conditions: foliar, 192 h, read-out: mortality on mixed population (mobile stages)
Method: Tetranychus urticae (Two-Spotted Spider Mite): Feeding/Contact Activity
as §1, with “Bean” for “Sunflower”, “discs” for “discs were placed”, “were” for “and”, “mite” for “thrips”, “on mixed population (mobile stages) 8” for “6”

[5] = tested on: Myzus persicae; assay: Myzus persicae (green peach aphid) feeding/contact activity; conditions: foliar, 144 h
Method: Myzus persicae (Green Peach Aphid): Feeding/Contact Activity
Sunflower leaf discs were placed onto agar in a 24-well microtiter plate and sprayed with aqueous test solutions prepared from 10′000 ppm DMSO stock solutions. After drying, the leaf discs were infested with an aphid population of mixed ages. The samples were assessed for mortality 6 days after infestation.

[6] = tested on: Euschistus heros; assay: Euschistus heros (neotropical brown stink bug) feeding/contact activity; conditions: 120 h
Method: Euschistus heros (Neotropical Brown Stink Bug): Feeding/Contact Activity
Soybean leaves on agar in 24-well microtiter plates were sprayed with aqueous test solutions prepared from 10′000 ppm DMSO stock solutions. After drying the leaves were infested with N2 nymphs. The samples were assessed for mortality 5 days after infestation.

[7] = tested on: Plutella xylostella; assay: Plutella xylostella (diamond back moth) feeding/contact activity; conditions: 120 h
Method: Plutella xylostella (Diamond Back Moth): Feeding/Contact Activity
24-well microtiter plates with artificial diet were treated with aqueous test solutions prepared from 10′000 ppm DMSO stock solutions by pipetting. After drying, the plates were infested with L2 larvae (10 to 15 per well). The samples were assessed for mortality 5 days after infestation.

[8] = application rate 200 ppm, L1 larvae on sprayed cotton leaf discs, assessed 3 days after infestation, read-out: mortality
[9] = application rate 200 ppm, thrips population of mixed ages on sprayed sunflower leaf discs, assessed 6 days after infestation, read-out: mortality
[10] = application rate 200 ppm, mite population of mixed ages on sprayed bean leaf discs, assessed 8 days after infestation
[11] = application rate 200 ppm, aphid population of mixed ages on sprayed sunflower leaf discs, assessed 6 days after infestation, read-out: mortality
[12] = application rate 200 ppm, N2 nymphs on sprayed soybean leaves, assessed 5 days after infestation, read-out: mortality
[13] = application rate 200 ppm, L2 larvae on treated artificial diet, assessed 5 days after infestation, read-out: mortality

Measured: mortality at 200 ppm

Cn1nc(C(F)(F)C(F)(F)F)c(OC(F)F)c1-n1cc(-c2ccc(C(F)(F)F)c(C(=O)NC3(C#N)CC3)c2)cn1 [Compound 1, N-(1-cyanocyclopropyl)-5-[1-[4-(difluoromethoxy)-2-methyl-5-(1,1,2,2,2-pentafluoroethyl)pyrazol-3-yl]pyrazol-4-yl]-2-(trifluoromethyl)benzamide]
≥ 80%: [1]; [8] | [2]; [9] | [3] | [4]; [10] | [5]; [11] | [6]; [12] | [7]; [13]

COCN(C(=O)c1cc(-c2cnn(-c3c(OC(F)F)c(C(F)(F)C(F)(F)F)nn3C)c2)ccc1C(F)(F)F)C1(C#N)CC1 [Compound 7, N-(1-cyanocyclopropyl)-5-[1-[4-(difluoromethoxy)-2-methyl-5-(1,1,2,2,2-pentafluoroethyl)pyrazol-3-yl]pyrazol-4-yl]-N-(methoxymethyl)-2-(trifluoromethyl)benzamide]
≥ 80%: [1]; [8] | [2]; [9] | [4]; [10] | [5]; [11] | [6]; [12] | [7]; [13]

Cn1nc(C(F)(F)C(F)(F)F)c(OC(F)F)c1-n1cc(-c2ccc(C(F)(F)F)c(C(=O)N(CC#N)C3(C#N)CC3)c2)cn1 [Compound 8, N-(1-cyanocyclopropyl)-N-(cyanomethyl)-5-[1-[4-(difluoromethoxy)-2-methyl-5-(1,1,2,2,2-pentafluoroethyl)pyrazol-3-yl]pyrazol-4-yl]-2-(trifluoromethyl)benzamide]
≥ 80%: [1]; [8] | [2]; [9] | [4]; [10] | [5]; [11] | [6]; [12] | [7]; [13]

C#CCN(C(=O)c1cc(-c2cnn(-c3c(OC(F)F)c(C(F)(F)C(F)(F)F)nn3C)c2)ccc1C(F)(F)F)C1(C#N)CC1 [Compound 10]
≥ 80%: [1]; [8] | [2]; [9] | [4]; [10] | [5]; [11] | [6]; [12] | [7]; [13]

CCOC(=O)N(C(=O)c1cc(-c2cnn(-c3c(OC(F)F)c(C(F)(F)C(F)(F)F)nn3C)c2)ccc1C(F)(F)F)C1(C#N)CC1 [Compound 9, ethyl N-(1-cyanocyclopropyl)-N-[5-[1-[4-(difluoromethoxy)-2-methyl-5-(1,1,2,2,2-pentafluoroethyl)pyrazol-3-yl]pyrazol-4-yl]-2-(trifluoromethyl)benzoyl]carbamate]
≥ 80%: [1] | [2] | [4] | [5] | [6]; in Glycine max | [7]

CN(C(=O)c1cc(-c2cnn(-c3c(OC(F)F)c(C(F)(F)C(F)(F)F)nn3C)c2)ccc1C(F)(F)F)C1(C#N)CC1 [Compound 2, N-(1-cyanocyclopropyl)-5-[1-[4-(difluoromethoxy)-2-methyl-5-(1,1,2,2,2-pentafluoroethyl)pyrazol-3-yl]pyrazol-4-yl]-N-methyl-2-(trifluoromethyl)benzamide]
≥ 80%: [1]; [8] | [2]; [9] | [3] | [4]; [10] | [5]; [11] | [6]; [12] | [7]; [13]

Cn1nc(C(F)(F)C(F)(F)F)c(OC(F)F)c1-n1cc(-c2ccc(C(F)(F)F)c(C(=O)N(CC3CC3)C3(C#N)CC3)c2)cn1 [Compound 5, N-(1-cyanocyclopropyl)-N-(cyclopropylmethyl)-5-[1-[4-(difluoromethoxy)-2-methyl-5-(1,1,2,2,2-pentafluoroethyl)pyrazol-3-yl]pyrazol-4-yl]-2-(trifluoromethyl)benzamide]
≥ 80%: [1]; [8] | [2]; [9] | [5]; [11] | [6]; [12] | [7]; [13]

Cn1nc(C(F)(F)C(F)(F)F)c(OC(F)F)c1-n1cc(-c2ccc(C(F)(F)F)c(C(=O)NC3CC3)c2)cn1 [Compound 4, N-cyclopropyl-5-[1-[4-(difluoromethoxy)-2-methyl-5-(1,1,2,2,2-pentafluoroethyl)pyrazol-3-yl]pyrazol-4-yl]-2-(trifluoromethyl)benzamide]
≥ 80%: [1]; [8] | [2]; [9] | [3] | [4]; [10] | [5]; [11] | [6]; [12] | [7]; [13]

CC(=O)N(C(=O)c1cc(-c2cnn(-c3c(OC(F)F)c(C(F)(F)C(F)(F)F)nn3C)c2)ccc1C(F)(F)F)C1(C#N)CC1 [Compound 6, N-acetyl-N-(1-cyanocyclopropyl)-5-[1-[4-(difluoromethoxy)-2-methyl-5-(1,1,2,2,2-pentafluoroethyl)pyrazol-3-yl]pyrazol-4-yl]-2-(trifluoromethyl)benzamide]
≥ 80%: [1]; [8] | [2]; [9] | [4]; [10] | [5]; [11] | [6]; [12] | [7]; [13]

CCN(C(=O)c1cc(-c2cnn(-c3c(OC(F)F)c(C(F)(F)C(F)(F)F)nn3C)c2)ccc1C(F)(F)F)C1(C#N)CC1 [Compound 3, N-(1-cyanocyclopropyl)-5-[1-[4-(difluoromethoxy)-2-methyl-5-(1,1,2,2,2-pentafluoroethyl)pyrazol-3-yl]pyrazol-4-yl]-N-ethyl-2-(trifluoromethyl)benzamide]
≥ 80%: [1]; [8] | [2]; [9] | [3] | [4]; [10] | [5]; [11] | [6]; [12] | [7]; [13]
